Literature values, collected in US20100197018A1, “USE OF SUBSTRATES AS PHARMACOLOGICAL CHAPERONES” (AMICUS THERAPEUTICS, INC., priority 2007, published 2010).
Read-outs that look alike come from different tables or passages of the source.

Assays:
heparan-N-sulfatase = molecular target: T1, heparan-N-sulfatase (Homo sapiens, UniProt P51688); settings: 37°; for Relative catalytic efficiency*: GlcNS = 1.00
T1 sequence (P51688 21-502): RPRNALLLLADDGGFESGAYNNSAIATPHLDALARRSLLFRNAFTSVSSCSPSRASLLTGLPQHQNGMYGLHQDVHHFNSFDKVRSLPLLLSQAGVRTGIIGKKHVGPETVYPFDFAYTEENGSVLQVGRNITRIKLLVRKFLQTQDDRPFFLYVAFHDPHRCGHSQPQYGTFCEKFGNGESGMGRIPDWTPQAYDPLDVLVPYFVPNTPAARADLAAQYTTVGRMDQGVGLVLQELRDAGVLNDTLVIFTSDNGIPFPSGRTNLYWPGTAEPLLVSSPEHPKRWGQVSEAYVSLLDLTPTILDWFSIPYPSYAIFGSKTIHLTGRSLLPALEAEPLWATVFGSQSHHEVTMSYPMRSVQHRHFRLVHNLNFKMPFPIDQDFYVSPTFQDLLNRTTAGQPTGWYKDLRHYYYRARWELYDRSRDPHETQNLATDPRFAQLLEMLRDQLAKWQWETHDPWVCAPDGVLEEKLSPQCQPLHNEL

[1] = molecular target: T2, N-acetyl-glucosamine-6-sulfate sulfatase (6S) Form B (Homo sapiens, UniProt P15586)
T2 sequence (P15586 37-552): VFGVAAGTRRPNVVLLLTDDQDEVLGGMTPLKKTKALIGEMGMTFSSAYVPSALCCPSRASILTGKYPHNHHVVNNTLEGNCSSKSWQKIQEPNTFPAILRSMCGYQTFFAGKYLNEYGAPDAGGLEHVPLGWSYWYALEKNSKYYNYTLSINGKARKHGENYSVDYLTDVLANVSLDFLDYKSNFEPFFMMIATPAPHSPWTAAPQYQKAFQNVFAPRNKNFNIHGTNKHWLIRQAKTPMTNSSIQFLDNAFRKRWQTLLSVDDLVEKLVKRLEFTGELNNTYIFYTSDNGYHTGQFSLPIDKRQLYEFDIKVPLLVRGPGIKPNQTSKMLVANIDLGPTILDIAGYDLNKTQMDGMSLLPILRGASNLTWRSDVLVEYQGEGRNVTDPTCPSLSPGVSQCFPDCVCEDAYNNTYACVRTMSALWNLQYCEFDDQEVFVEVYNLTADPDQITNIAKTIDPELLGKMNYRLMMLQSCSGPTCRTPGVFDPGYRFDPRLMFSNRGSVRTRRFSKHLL

[2] = molecular target: T3, N-acetyl-glucosamine-6-sulfate sulfatase (6S) Form A (Homo sapiens, UniProt P15586); settings: for Relative catalytic efficiency*: kcat./Km calculated relative to a value for GlcNAc6S = 1; for pH optimum: Table 6; for Ratio of catalytic efficiencies: form A/form B: form A over form B
T3 sequence (P15586 37-552): T2 sequence (P15586 37-552)

BACEI = BACEI (Homo sapiens, UniProt P56817); settings: low concentrations
BACEI, sequence (P56817 46-457 limits assumed): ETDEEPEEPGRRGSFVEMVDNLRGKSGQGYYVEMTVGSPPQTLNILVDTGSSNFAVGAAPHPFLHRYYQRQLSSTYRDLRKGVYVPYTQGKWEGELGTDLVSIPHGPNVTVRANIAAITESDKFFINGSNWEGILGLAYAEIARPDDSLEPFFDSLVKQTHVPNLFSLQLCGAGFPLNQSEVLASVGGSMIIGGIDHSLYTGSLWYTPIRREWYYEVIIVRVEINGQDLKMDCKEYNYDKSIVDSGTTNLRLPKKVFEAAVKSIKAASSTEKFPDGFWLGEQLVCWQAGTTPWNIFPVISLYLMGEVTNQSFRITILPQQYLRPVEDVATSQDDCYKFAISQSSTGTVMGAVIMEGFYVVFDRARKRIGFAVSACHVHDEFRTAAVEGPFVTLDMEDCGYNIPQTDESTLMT

[3] = in vivo
[4] = pH 5.6 (second line of the substrate)
[5] = pH: GlcNS-Ido 6.7, GlcNS-Ido2S 5.5, GlcNS-IdOA 5.6, GlcNS-IdoA-GlcNS-IdOA 5.6, GlcNS-IdoA2S-anM6S 3.6, GlcNS6S-Ido 4.2, GlcNS6S-Ido2S 3.8, GlcNS6S-IdOA 4.2
[6] = second line of the substrate, parentheses not explained

| Compound | Relative catalytic efficiency* (heparan-N-sulfatase; pH (optimum)) | Km (heparan-N-sulfatase; [5]) [µM] | kcat. (turnover number) (heparan-N-sulfatase; [5]) | Km ([1]; read-out: Km) [µM] | kcat. (turnover number) ([2]; Form A) | Relative catalytic efficiency* ([2]; Form A) | Km ([2]; Form A, read-out: Km) [µM] | pH optimum [2] | Ratio of catalytic efficiencies: form A/form B [2] | pH optimum of 6S activity [2] | other results |
| --- | --- | --- | --- | --- | --- | --- | --- | --- | --- | --- | --- |
| O=C(O)[C@H](O)[C@@H](O[C@H]1O[C@H](COS(=O)(=O)O)[C@@H](O)[C@H](O)[C@H]1NS(=O)(=O)O)[C@H](O)[C@@H](O)CO [GlcNS6S-IdOA, O-(α-2-sulphaminoglucosamine 6 sulphate)-(1-3)-L-idonic acid] | 33 | 2.5 | 0.105 mol/min per mol of enzyme | 8.3 | 2.46 mol/min per mol of enzyme | 13 | 8 | 5.0 | 2.2 | – | Km (heparan-N-sulfatase; [4]): 2.4 µM; kcat. (turnover number) (heparan-N-sulfatase; [4]): 0.088 mol/min per mol of enzyme; Relative catalytic efficiency* (heparan-N-sulfatase; [4]): 50; Km ([1]; second line of the substrate, parentheses not explained, read-out: Km, value in parentheses): 6.6 µM; Relative catalytic efficiency*, value in parentheses ([2]; Form A, relative to GlcNAc6S = 1, parentheses not explained): (9.8); kcat. (turnover number), value in parentheses ([2]; Form A, second line of the substrate, parentheses not explained): (1.725) mol/min per mol of enzyme; Km ([2]; Form A, second line of the substrate, parentheses not explained, read-out: Km, value in parentheses): 7.6 µM; Ratio of catalytic efficiencies: form A/form B, value in parentheses [2, 6]: (2.5); pH optimum, value in parentheses [2, 6]: (5.0) |
| O=C[C@H](O)[C@@H](O)[C@H](O)[C@H](O)COS(=O)(=O)O [Glc6S, glucose 6-sulfate] | – | – | – | 62.5 | 0.585 mol/min per mol of enzyme | 0.4 | 62.5 | 5.7 | 1.3 | 5.7 | Kcat [2]: 0.585 mol/min/mol enzyme; Km ([2]; read-out: Km): 62.5 µM |
| heparin | – | – | – | – | – | – | – | – | – | – | effect on partially active BACEI (BACEI): stimulate partially active BACEI |
| O=C[C@H](O)[C@@H](O)[C@H](O[C@H]1O[C@H](COS(=O)(=O)O)[C@@H](O)[C@H](O)[C@H]1NS(=O)(=O)O)[C@@H](O)CO [GlcNS6S-Ido, O-(α-2-sulphaminoglucosamine 6-sulphate)-(1-4)-L-idose] | 28 | 3 | 0.061 mol/min per mol of enzyme | 9.2 | 0.518 mol/min per mol of enzyme | 2.1 | 10.8 | 4.8 | 1.9 | – | – |
| CC(=O)N[C@H]1C(O)O[C@H](COS(=O)(=O)O)[C@@H](O)[C@@H]1O (some centres unmarked) [GlcNAc6S, N-acetyl-glucosamine 6-sulfate] | – | – | – | 10 | 0.165 mol/min per mol of enzyme | 1.0 | 7.1 | 5.7 | 2.1 | 5.7 | decrease in the Km ([2]; addition of a 2-acetamido group to Glc6S): 6-9 fold; effect on Kcat ([2]; relative to the parent substrate (Glc6S for GlcNAc6S; GlcNAc6S for GlcNAc6S-Ido)): decrease in Kcat |
| heparan sulphate | – | – | – | – | – | – | – | – | – | – | oral activity [3]: orally active |
